Tests used:
SR Ca^2+-ATPase = assay: Calcium uptake assay (fluo-3) in SR vesicles from fast skeletal muscle (psoas m.), which contain no phospholamban; assay type: biochemical, guinea-pig; conditions: vesicles from fast skeletal muscle, 0.04 µM free calcium
Source text: (§1) The direct binding of a compound to the phospholamban protein can be ascertained by the circular dichroism (CD) spectroscopy. The methods for determining whether a compound relieves the inhibitory effect of phospholamban on SR Ca^2+-ATPase by direct binding to the phospholamban protein, i.e. is a phospholamban inhibitor, are illustrated in detail in the experimental section.
(§2) The effect on phospholamban of the compounds used in the invention was verified by measuring its effects on calcium uptake into the SR vesicles prepared from cardiac tissue and into vesicles prepared from fast skeletal muscle (psoas m.). […] The methods are described below in detail.
(§3) Guinea pigs (10-12) were decapited. Their hearts or the psoas muscles were excised, washed in ice-cold 0.9 % NaCl and cut into pieces in a buffer containing 20 mM Tris-maleate, 0.3 M sucrose, pH 7.0. Thereafter tissue pieces were homogenized with Polytron and further with Potter (10 strokes). The homogenate was centrifugated at 1000 g for 15 min at 4 °C. The supernatant was collected and the pellet was resuspended into 5 ml of the buffer (20 mM Tris-maleate, 0.3 M sucrose, pH 7.0) and recentrifugated at 1000 g for 10 min at 4 °C. The obtained supernatant was combined with the earlier collected supernatant and centrifugated once again at 10 000 g for 20 min at 4 °C. The final supernatant was filtered into a bottle equipped with a magnetic stirrer. KCl was added to the filtered supernatant to achieve the final concentration of 0.6 M (at 4 °C). The obtained solution was centrifugated at 100 000 g for 60 min at 4 °C. The pellet was suspended in 5 ml of the buffer containing 20 mM Tris-maleate, 0.3 M sucrose, pH 7.0 and centrifugated at 100 000 g for 60 min at 4 °C. The obtained pellet was suspended in 5 ml of buffer containing 20 mM Tris-maleate, 0.3 M sucrose, 0.1 M KCI, pH 7.0 and stored at -80 °C until use. The protein concentration was also measured in order to standardise the separately prepared vesicle preparations.
(§4) In the calcium uptake assay, the fluorescent indicator, fluo-3 was used to detect the decrease of the extravesicular Ca^2+-concentration, when the SR Ca^2+ATPase was transferring Ca^2+ from the extravesicular space into the SR-vesicles.
(§5) The SR-vesicles obtained above (50 µg protein/ml) were preincubated with or without the test compound at 37 °C for 5 min in the assay buffer containing 40 mM imidazole, 95 mM KCI, 5 mM NaN3, 5 mM MgCl2, 0.5 mM EGTA, 5 mM potassium oxalate, 2 µM ruthenium red, 5 µM fluo-3, pH 7.0. The free calcium was adjusted to 0.1 µM or to 0.04 µM by CaCl2. The reaction was initiated by adding ATP (5 mM). The final reaction volume was 1.5 ml. The fluorescence of reaction mixture was measured for 3 min by using the excitation and emission wavelengths of 510 nm and 530 nm, respectively.

phospholamban = target: T1, phospholamban (Cavia porcellus, UniProt A0A286XLC6); assay: Calcium uptake assay (fluo-3) in SR vesicles from cardiac tissue; assay type: biochemical, guinea-pig; conditions: vesicles from ventricular myocardium, 0.1 µM free calcium, read-out: The stimulation (%) of Ca^2+ uptake A; for activation at 100 µM: 100 µM compound; for activation at 10 µM: 10 µM compound
T1 construct: calcium uptake into the SR vesicles prepared from cardiac tissue; from tissue; host or cells: guinea-pig heart (ventricular myocardium), SR vesicle preparation
T1 sequence (A0A286XLC6 1-52): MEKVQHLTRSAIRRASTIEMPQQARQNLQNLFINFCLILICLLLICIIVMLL
Source text: as §1, §2, §3, §4, §5

coronary arteries = assay: Coronary flow in isolated paced heart (Langendorff, constant pressure); parameters: species or system guinea-pig; conditions: Cavia porcellus; for Emax at 30 µM / Emax at 10 µM / Emax at 3 µM: read-out: Maximum effect (% change from baseline) on the coronary flow; for EC50: isolated heart, constant pressure 50 mmHg, paced at 250 beats/min
Protocol: Guinea-pigs of either sex weighing 300-400 g were used in the study. After the guinea-pig was sacrificed by a blow on the skull and decapitated the heart was rapidly excised. The heart was then rinsed in cold oxygenated perfusion buffer. A cannula was inserted into the aorta and secured with a ligature. Retrograde perfusion began as soon as the heart was placed in a thermostatically controlled moist chamber of the Langendorff apparatus. Modified Tyrode solution (37 °C), equilibrated in a thermostatically controlled bulb oxygenator with carbogen (95 % O2 and 5% CO2) was used as a perfusion buffer. The composition of the Tyrode solution was (in mM): NaCl 135; MgCl2 x 6H2O 1; KCl 5; CaCl2 x 2H2O 2; NaHCO3 15; Na2HPO4 x 2H2O 1; glucose 10; pH 7.3-7.4. The experiments were carried out under constant pressure condition (50 mmHg). After a short prestabilization (10 min) a latex balloon (size 4) was carefully placed into the left ventricle through the left pulmonary vein and the left atrium. The latex balloon was attached to a stainless-steel cannula coupled with a pressure transducer. The latex balloon, the cannula and the chamber of the pressure transducer were filled with ethylene glycol / water (1:1) mixture avoiding any air-bubble. The isovolumetric left ventricular pressure was recorded through the pressure transducer. The maximal positive and negative derivatives of the left ventricular pressure were calculated by using the digitized pressure signals. At the beginning of the experiment, the volume of the balloon was adjusted to obtain a diastolic pressure of approximately 5 mmHg. Coronary flow (ml/min) was continuously recorded by an electromagnetic flow meter with a flow probe inserted above the aortic cannula. The heart was paced at 250 beats/min with a coaxial electrode localized on the surface of the right atrium. Before starting the experiment, the heart was allowed to stabilise further for 30 - 50 min with vehicle (0.1% DMSO) to reach a stable coronary flow.
After 15 min baseline recording various concentrations of the test compound of Example 1c were added to the perfusion buffer at 15 min intervals. The concentration range of 0.3 - 30 µM was tested. The vehicle concentration (0.1% DMSO) was kept constant throughout the experiment.

Row | Structure (SMILES) | activation at 100 µM (phospholamban) [%] | Emax at 30 µM (coronary arteries) [%] | EC50 (coronary arteries) [µM] | Emax at 10 µM (coronary arteries) [%] | further results
1 | O=c1oc2cc(OCc3nnn[nH]3)cc(OCc3nnn[nH]3)c2c2c1C(c1ccccc1)CCC2 (centres unmarked) [Example 2c, 7,8,9,10-Tetrahydro-1,3-bis[(1H -tetrazol-5-yl)methoxy]-7-phenyl-6H-dibenzo[b,d]pyran-6-one] | 26 |  |  |  | The stimulation (%) of Ca^2+ uptake B (SR Ca^2+-ATPase; 100 µM compound): -1%
2 | Cc1c(Cc2ccccc2)c(=O)oc2cc(OCc3noc(=O)[nH]3)cc(OCc3noc(=O)[nH]3)c12 [Example 3c, 3-Benzyl-5,7-bis[(2,5-dihydro-5-oxo-4H-1,2,4-oxadiazol-3-yl)-methoxy]-4-methyl-2H-1-benzopyran-2-one] |  | 174 | 5 |  | The stimulation (%) of Ca^2+ uptake B (SR Ca^2+-ATPase; 20 µM compound): 0%; activation at 20 µM (phospholamban; 20 µM compound): 51%
3 | O=c1cc(-c2ccccc2)c2c(OCc3nnn[nH]3)cc(OCc3nnn[nH]3)cc2o1 [Example 5c, 5,7-Bis[(1H-tetrazol-5-yl)methoxy]-4-phenyl-2H-1-benzopyran-2-one] |  | 52 | > 10 |  | 
4 | Cc1c(CCc2ccccc2)c(=O)oc2cc(OCc3nnn[nH]3)cc(OCc3nnn[nH]3)c12 [Example 7c, 5,7-Bis[(1H-tetrazol-5-yl)methoxy]-4-methyl-3-(2-phenylethyl)-2H-1benzopyran-2-one] | 5 |  |  |  | The stimulation (%) of Ca^2+ uptake B (SR Ca^2+-ATPase; 100 µM compound): -17%
5 | Cc1c(Cc2ccccc2)c(=O)n(Cc2ccccc2)c2cc(OCc3nnn[nH]3)cc(OCc3nnn[nH]3)c12 [Example 8g, 5,7-Bis[(1H-tetrazol-5-yl)methoxy]-1,3-dibenzyl-4-methyl-2(1H)-quinolinone] |  |  | 1 | 100 | The stimulation (%) of Ca^2+ uptake B (SR Ca^2+-ATPase; 10 µM compound): 0%; activation at 10 µM (phospholamban): 18%
6 | Cc1c(Cc2ccccc2)c(=O)oc2cc(OC(C)c3nnn[nH]3)cc(OC(C)c3nnn[nH]3)c12 (centres unmarked) [Example 11b, 3-Benzyl-5,7-bis[1-(1H-tetrazol-5-yl)ethoxy]4-methyl-2 H-1-benzopyran-2-one] | 28 |  | 1 |  | Emax at 3 µM (coronary arteries): 38%
7 | Cc1c(Cc2ccccc2)c(=O)n(Cc2ccccc2)c2cc(OCC(=O)O)cc(OCC(=O)O)c12 [Example 12, 5,7-Bis(carboxymethoxy)-1,3-dibenzyl-4-methyl-2(1H)-quinolinone] | 32 |  | 5 | 60 | 
8 | Cc1c(Cc2ccccc2)c(=O)n(Cc2ccc(F)cc2)c2cc(OCc3nnn[nH]3)cc(OCc3nnn[nH]3)c12 [Example 13d] |  | 104 | 6 |  | activation at 50 µM (phospholamban; 50 µM compound): 23%
9 | Cc1c(Cc2ccc(Cl)cc2)c(=O)oc2cc(OCc3nnn[nH]3)cc(OCc3nnn[nH]3)c12 [Example 14c, 5,7-Bis[(1H-tetrazol-5-yl)methoxy]-3-(4-chlorobenzyl)-4-methyl-2H-1-benzopyran-2-one] |  |  | 1.5 | 112 | activation at 10 µM (phospholamban): 18%
10 | Cc1cc(=O)n(Cc2ccccc2)c2cc(OCc3nnn[nH]3)cc(OCc3nnn[nH]3)c12 [Example 18e, 1-Benzyl-5,7-bis-[(1H-tetrazol-5-yl)methoxy]-4-methyl-2(1H)-quinolinone] | 13 | 69 | 5 |  | 
11 | Cc1c(Cc2ccccc2)c(=O)n(Cc2ccccc2)c2cc(OCC(N)=O)cc(OCC(N)=O)c12 [Example 21, 5,7-Bis(aminocarbonylmethoxy)-1,3-dibenzyl-4-methyl-2(1H)-quinolinone] | 11 |  | 2 | 141 | 
12 | Cc1c(Cc2ccccc2)c(=O)n(Cc2ccccc2)c2cc(OCC(=O)NO)cc(OCC(=O)NO)c12 [Example 23, 5,7-Bis(hydroxyaminocarbonylmethoxy)-1,3-dibenzyl-4-methyl-2(1H)-quinolinone] |  |  | 0.9 |  | Emax at 3 µM (coronary arteries): 55%; activation at 5 µM (phospholamban; 5 µM compound): 20%

Reference: patent EP1001774B1, “USE OF PHOSPHOLAMBAN INHIBITORS FOR INCREASING CORONARY FLOW” (ORION CORPORATION, priority 1997, dated 1999)
